US8008320B2, “3-(indolyl)-4-arylmaleimide derivatives and their use as angiogenesis inhibitors” (Johannes Gutenberg-Universitatis, priority 2004, dated 2011)

Row | SMILES | melting point
1 | COc1ccc(C2=C(c3c[nH]c4ccccc34)C(=O)NC2=O)cc1OC [Example 2, 3-(Indole-3-yl)-4-(3,4-dimethoxyphenyl)-1H-pyrrole-2,5-dione] | 210 °C
2 | COc1ccc2[nH]cc(C3=C(c4cc(OC)c(OC)c(OC)c4)C(=O)NC3=O)c2c1 [Example 3, 3-(5-Methoxyindole-3-yl)-4-(3,4,5-trimethoxyphenyl)-1H-pyrrole-2,5-dione] | 268 °C
3 | COc1cc(C2=C(c3cn(C)c4ccccc34)C(=O)NC2=O)cc(OC)c1OC [Example 4, 3-(1-Methylindole-3-yl)-4-(3,4,5-trimethoxyphenyl)-1H-pyrrole-2,5-dione] | 187 °C
4 | COc1cc(C2=C(c3c(C)[nH]c4ccccc34)C(=O)NC2=O)cc(OC)c1OC [Example 5, 3-(2-Methylindole-3-yl)-4-(3,4,5-trimethoxyphenyl)-1H-pyrrole-2,5-dione] | 266 °C
5 | COc1cc(C2=C(c3c(-c4ccccc4)[nH]c4ccccc34)C(=O)NC2=O)cc(OC)c1OC [Example 6, 3-(2-Phenylindole-3-yl)-4-(3,4,5-trimethoxyphenyl)-1H-pyrrole-2,5-dione] | 304 °C
6 | COc1cc(C2=C(c3cc4ccccc4[nH]3)C(=O)NC2=O)cc(OC)c1OC [Example 7, 3-(Indole-2-yl)-4-(3,4,5-trimethoxyphenyl)-1H-pyrrole-2,5-dione] | 252 °C
7 | COc1cc(C2=C(c3c[nH]c4ncccc34)C(=O)NC2=O)cc(OC)c1OC [Example 8, 3-(7-Azaindol-3-yl)-4-(3,4,5-trimethoxyphenyl)-1H-pyrrole-2,5-dione] | 162 °C
